Each structure is given as a SMILES string. ≈ marks a conversion by molar mass, not a printed value.

The assay deals with P388. Nature of the assay: Cytotoxicity against mouse P388 cells. It is filed as functional. Conditions: read-out: ED50 (the source's name).
For the compound `O=c1[nH]cc(F)c(=O)[nH]1` [FLUOROURACIL], the EC50 was found to be 0.073 µg/mL (≈ 0.561 µM).

For the compound `CCCCCC[C@@H](C)/C=C(C)/C=C/C(N)=O` [GYMNAMIDE], the EC50 was over 10 µg/mL.

`CCCCCC[C@@H](C)/C=C(C)/C=C/C(=O)N[C@H]1C[C@]2(O)C=C(Cl)C(=O)[C@@](Cl)([C@H]2OC)[C@H]1O` [GYMNASTATIN F]: the EC50 worked out at 0.13 µg/mL (≈ 0.266 µM).

Take `CCCCCC[C@@H](C)/C=C(C)/C=C/C(=O)N[C@H]1C[C@]2(O)[C@H]3O[C@H]3C(=O)[C@](Cl)([C@H]1O)[C@H]2OC` [GYMNASTATIN G]: the EC50 turned out to be 0.03 µg/mL (≈ 0.0638 µM).

With `CCCCCC[C@@H](C)/C=C(C)/C=C/C(=O)N[C@@H](Cc1ccc(O)cc1)C(=O)OC` [GYMNASTATIN H], the EC50 was over 10 µg/mL.
